{"source": "ChEMBL document CHEMBL6182880", "about": "“TCM theory-inspired discovery of DNJ-flavonoid conjugates as broad-spectrum anti-SARS-CoV-2 agents by primarily targeting ER-associated glycoprotein folding process” (Eur J Med Chem, 2025)", "type_in_all_cases": "functional, organism-based", "key": {"SARS-CoV-2 [1]": {"tested_on": "SARS-CoV-2", "assay": "Antiviral activity against SARS CoV-2 pseudovirus transfected in HEK293 cells harboring pLenti-GFP-Luc assessed as inhibition of viral entry into HeLa-ACE2 cells incubated with cells for 1 to 2 hrs prior to viral infection and measured after 48 hrs by luciferase assay", "conditions": "Severe acute respiratory syndrome coronavirus 2, HeLa-ACE2; call rule not given here"}, "SARS-CoV-2 [2]": {"tested_on": "SARS-CoV-2", "assay": "Antiviral activity against SARS CoV-2 pseudovirus transfected in HEK293 cells harboring pLenti-GFP-Luc assessed as inhibition of viral entry into HeLa-ACE2 cells treated 1 to 6 hrs post-infection and measured after 48 hrs by luciferase assay", "conditions": "Severe acute respiratory syndrome coronavirus 2"}, "SARS-CoV-2 [3]": {"tested_on": "SARS-CoV-2", "assay": "Antiviral activity against SARS CoV-2 pseudovirus transfected in HEK293 cells harboring pLenti-GFP-Luc assessed as inhibition of viral packing process by luciferase assay", "conditions": "Severe acute respiratory syndrome coronavirus 2; HeLa-ACE2; time 48.0 hrs"}, "SARS-CoV-2 [4]": {"tested_on": "SARS-CoV-2", "assay": "Antiviral activity against SARS CoV-2 pseudovirus transfected in HEK293 cells harboring pLenti-GFP-Luc assessed as inhibition of viral packing process treated from 12 to 48 hrs post-transfection by luciferase assay", "conditions": "Severe acute respiratory syndrome coronavirus 2, HeLa-ACE2"}, "SARS-CoV-2 [5]": {"tested_on": "SARS-CoV-2", "assay": "Antiviral activity against SARS CoV-2 pseudovirus transfected in HEK293 cells harboring pLenti-GFP-Luc assessed as inhibition of viral entry into HeLa-ACE2 cells treated for 12 hrs prior to media replacement and measured after 48 hrs by luciferase assay", "conditions": "Severe acute respiratory syndrome coronavirus 2, HeLa-ACE2"}}, "data": [{"smiles": "O=c1cc(-c2ccc(O)c(O)c2)oc2cc(O)cc(OCCCCCCCCCCN3C[C@H](O)[C@@H](O)[C@H](O)[C@H]3CO)c12", "values": [{"measurement": "EC50", "setting": "SARS-CoV-2 [1]", "result": 7.52, "unit": "µM"}, {"measurement": "inhibition", "setting": "SARS-CoV-2 [2]", "result": "Not active; Delay Of Time Of Addition Exerted A Time-Dependent Decrease In Viral Entry Inhibition"}, {"measurement": "inhibition", "setting": "SARS-CoV-2 [3]", "result": "Time-dependent-effect"}, {"measurement": "EC50", "setting": "SARS-CoV-2 [4]", "result": 7.52, "unit": "µM"}, {"measurement": "EC50", "setting": "SARS-CoV-2 [5]", "result": 5.13, "unit": "µM"}]}]}
